The term EC50 denotes the concentration that produces a half-maximal response. The IC50 is the concentration at which inhibition is half-maximal. Low readings indicate greater potency in that assay, high ones weaker potency in that assay.

The source made the active and inactive calls.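 How the source made its calls: active means compounds giving half or more protection of infected cells from virus-caused growth loss, again on retest; inactive means the rest.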 Where a SMILES comes first, the peptide text is derived from it.

From PubChem BioAssay AID179 (DTP/NCI, 2004) come the findings set out here.

This experiment deals with CEM cells HIV-1 protection, formazan growth assay. The experiment is described as follows: NCI AIDS Antiviral Assay. To be noted: for IC50: measured here: growth of uninfected CEM cells. An outline of the steps:
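Category rules: moderately active means at least 50% protection on retest, and confirmed active means 100% protection reproducibly. The underlying data came from a formazan growth assay in HIV-1-infected CEM cells.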

With `CCOC(=O)C(NC(=O)c1ccccc1)(Nc1ccc(S(=O)(=O)Nc2cc(C)nc(C)n2)cc1)C(F)(F)F` (centres undefined), the EC50 was > 200 µM and the IC50 was > 200 µM. For `CC(=O)c1ccc(NC(=O)/C(Cc2ccccn2)=N/NC(=O)C[N+](C)(C)C)cc1`, the result was inactive.

In the case of `COC(=O)c1ccccc1CC(Cc1ccc2c(c1)CCC2)C(=O)OC` (centres undefined), the EC50 was > 200 µM and the IC50 came to 56.2 µM. `N#Cc1cccc(N2C(=O)c3ccc(C(=O)c4ccc5c(c4)C(=O)N(c4cccc(C#N)c4)C5=O)cc3C2=O)c1`: the EC50 was > 7.24 µM and the half-maximal inhibitory concentration (IC50) is > 7.24 µM. With `CC(=O)Nc1ccc2nc(-c3ccccn3)c(-c3ccccn3)nc2c1`, the EC50 is 27.5 µM and the IC50 was > 200 µM. For the compound `COc1cc2c(SCCN(C)C)nc3ccccc3c2c2ccccc12`, the result was inactive. For the compound `NC(=O)C(=O)c1ncn(Cc2ccccc2)c1N`, the EC50 is > 200 µM and the IC50 is > 200 µM. On to `CCN(CC)C(=O)C1=C(C)NC(C)=C(C(=O)N(CC)CC)C1`, for which the EC50 was > 200 µM and the IC50 came out at 61.7 µM. The corresponding values for `N#C[C@H](C(=O)c1ccccc1F)c1nc2ccccc2s1` are > 200 µM and 93.3 µM.

For `CN1CCCC(CNC23CC4CC(CC(C4)C2)C3)C1` (centres undefined), the EC50 was > 501 µM and the IC50 was > 501 µM.

On to `NNc1ncnc(NN)c1Br`, for which the EC50 was > 200 µM and the IC50 amounted to 56.2 µM. Take `COC1=CC(=O)c2ccccc2C1(C)C1=NC(C)(C)CO1` (centres undefined): the EC50 was > 631 µM and the IC50 is > 631 µM. On to `COc1ccc(C(=O)C(c2ccc(OC)cc2)C2(O)C(=O)Nc3c(C)cc(Cl)cc32)cc1` (centres undefined), for which the EC50 was > 79.4 µM and the IC50 was > 79.4 µM. For `COc1cccc(-c2nc(-c3cnccn3)n(C/C=C/c3ccccc3)n2)c1`, the concentration for a half-maximal effect (EC50) was 178 µM and the IC50 is > 200 µM. The corresponding values for `O=C(Cn1c(=O)oc2ccc(C(=O)c3ccc(F)cc3)cc21)c1ccc([N+](=O)[O-])cc1` are > 200 µM and 25.1 µM. The corresponding values for `O=C(O)CCC(NC(=O)c1ccc(Oc2nc3ccccc3nc2-c2ccccc2)cc1)C(=O)O` (centres undefined) are > 200 µM and > 200 µM. Consider `CCc1nc(N)nc(N)c1-c1ccc(Cl)cc1`, for which the EC50 was > 1 µM and the IC50 was 0.0372 µM. The corresponding values for `O=C(O)[C@@H]1CSC(c2ccccc2Cl)N1` (some centres undefined) are > 200 µM and 141 µM. For the compound `O=c1ccc2cc3ccoc3c(OCCCCCCBr)c2o1`, the EC50 is > 75.9 µM and the IC50 came out at 30.9 µM. The corresponding values for `O=S1(=O)c2ccccc2C(Nc2ccccc2)N1c1ccccc1` (centres undefined) are > 200 µM and 66.1 µM.

Consider `Cc1cccc(C2=NC(=C3CCCCC3)C(=O)O2)c1`, for which the EC50 is > 200 µM and the IC50 was 38 µM. With `CC(C)CC1C(=O)OC(C)(C)OC1=O`, the EC50 is > 200 µM and the IC50 is > 200 µM. As to `N=c1c2ccccc2sc2nc3ccccc3n12`, the EC50 was > 52.5 µM and the IC50 is > 52.5 µM. With `CC/C=C/c1cc2c(c3[nH]ccc13)[C@@H](C)CC2C` (some centres undefined) (tested in a mixture with another compound), the result was inactive. On to `Clc1ccccc1CN1COc2c(ccc3ccccc23)C1`, for which the EC50 is > 200 µM and the IC50 turned out to be 28.8 µM. `COC(=O)NC1(NC(=O)OC)NC(=O)c2ccccc2N1`: the EC50 was > 200 µM and the half-inhibitory concentration (IC50) was > 200 µM. On to `O=C(OC1CCC2OOC1O2)c1ccc([N+](=O)[O-])cc1` (centres undefined), for which the outcome was inactive.

Take `NC(CSS(=O)(=O)O)=NCCc1ccccn1`: the EC50 was > 200 µM and the IC50 was > 200 µM. On to `CCOC(=O)C1(C)CCCc2sc(N)c(C#N)c21` (centres undefined), for which the EC50 was > 200 µM and the 50% inhibitory concentration (IC50) was > 200 µM. `CCc1n[nH]c(=O)n1N1C(=O)C2CCCCC2C1=O` (centres undefined): the EC50 was > 200 µM and the IC50 is > 200 µM.

Consider `C=CCc1ccccc1N(C(=O)c1ccccc1)C(C(=O)OCC)c1ccccc1` (centres undefined), for which the EC50 is > 13.2 µM and the IC50 is > 13.2 µM. For the compound `COC(=O)c1ccc(NCC2=CC(=O)C=CC2=O)cc1`, the EC50 was > 200 µM and the IC50 was 1 µM.

With `COc1ccc(C=C2C(=O)NC(=O)NC2=O)cc1OCc1ccccc1`, the EC50 was > 200 µM and the IC50 amounted to 24.5 µM. Consider `O=C1NN=C(c2ccc(Cl)cc2)CC1C1C(=O)N(c2ccccc2)N=C1c1ccccc1` (centres undefined), for which the EC50 is > 100 µM and the IC50 stood at 49 µM. `OC1(c2ccccc2)CSc2ncnn21` (centres undefined): the EC50 is 138 µM and the IC50 was > 200 µM. With `O=C1CC23CCCCCCCCCCC2(C1)CC(=O)C3` (centres undefined), the result was inactive. For the compound `CS1(=O)=CC(=O)CC(c2ccccc2)C1` (centres undefined), the EC50 was > 1120 µM and the IC50 is > 1120 µM. As to `CC(=O)OCCc1cccnc1/C=N/O`, the EC50 was > 1200 µM and the IC50 turned out to be 204 µM. Regarding `CN(C)S(=O)(=O)C(c1ccccc1)C1(O)CCCCC1` (centres undefined), the EC50 was > 437 µM and the IC50 was > 437 µM. Take `CC(C)c1ccc2nc3ccc(C(=O)NCCN4CCN(c5ccccc5)CC4)cn3c(=O)c2c1`: the EC50 is > 200 µM and the IC50 is 14.8 µM.

As to `O=NN1CN2CN(C1)CN(N=O)C2`, the EC50 was > 200 µM and the IC50 is 30.9 µM. As to `CC(C)CC(N)C(=O)NC(CC(=O)O)C(=O)NC(CCCCN)C(=O)NC(C)C(=O)NC(CO)C(=O)NC(Cc1ccc(O)cc1)C(=O)NC(CO)C(=O)NC(C(=O)NC(CC(N)=O)C(=O)NC(Cc1cnc[nH]1)C(=O)NC(CC(C)C)C(=O)O)C(C)O` (centres undefined) (H-LDKASYSTNHL-OH; configuration not given here), the EC50 is > 50.1 µM, the outcome was inactive and the IC50 is > 50.1 µM.

For `C[n+]1cccc(O)c1`, the result was inactive. The compound `[N-]=[N+]=NC1CC(n2cc(COCC(F)(F)F)c(=O)[nH]c2=O)OC1CO` (centres undefined) yielded an EC50 of 5.75 µM and an IC50 of 251 µM. As to `CN1CCCCCCCC(=O)C(OC(=O)c2ccc([N+](=O)[O-])cc2)CCCCCCC1` (centres undefined), the EC50 is > 100 µM and the IC50 was determined as 72.4 µM.

`COc1ccc(NC(=S)NNC(=O)c2cc(-c3ccccc3)nc3ccccc23)cc1`: the EC50 is > 200 µM and the IC50 came out at 35.5 µM. Consider `Cc1nc(-n2nc(-c3ccccc3)cc2-c2ccccc2)sc1C(/C=C\c1ccc([N+](=O)[O-])cc1)=N/NC(=S)NN`, for which the EC50 is > 32.4 µM and the IC50 is > 32.4 µM. Turning to `NC1=Nc2ccccc2N(O)N1`, the EC50 is > 158 µM and the IC50 was > 158 µM. In the case of `COC(=O)C(C#N)C1NC(=O)c2ccccc21` (centres undefined), the EC50 is > 81.3 µM and the IC50 is > 81.3 µM.

As for `CC12CC(=O)NC(=O)N1CCS2` (centres undefined), the EC50 is 214 µM and the IC50 worked out at 562 µM. Consider `O=C(c1ccccc1)C1CSS(=O)(=O)C1c1ccccc1` (centres undefined), for which the concentration giving a half-maximal response (EC50) is 27.5 µM and the 50% inhibitory concentration (IC50) amounted to 91.2 µM. With `CC(=O)C(=[N+]=[N-])C(=O)N(C)CCC#N`, the EC50 was > 200 µM and the IC50 is > 200 µM. Regarding `CCCCCCNC(=O)CCN(C(=O)O)S(=O)(=O)c1ccc(NC(=O)c2ccccc2)cc1`, the EC50 was > 380 µM and the concentration for half-maximal inhibition (IC50) was > 380 µM. `Cn1ccnc1.Cn1ccnc1.Cn1ccnc1.Cn1ccnc1.[O-][Cl+3]([O-])([O-])[O-].[Pt+2]`: the EC50 is > 200 µM and the concentration for half-maximal inhibition (IC50) was > 200 µM. Consider `NC(Cc1ccc2nc3c4ccccc4c(=O)cc-3oc2c1)C(=O)O` (centres undefined), for which the EC50 is > 200 µM and the IC50 stood at 34.7 µM. Take `O=C(CN1CCCCC1)OCOP(=O)(OCOC(=O)CN1CCCCC1)OCC1CCC(n2ccc(=O)[nH]c2=O)O1` (centres undefined): the EC50 was > 100 µM and the IC50 turned out to be 36.3 µM. On to `Nc1c(Cl)c([N+](=O)[O-])cc2c1OCCCCO2`, for which the EC50 is > 200 µM and the IC50 was found to be 123 µM.

`C[N+]1([O-])[C@H]2CC(OC(=O)[C@H](CO)c3ccccc3)C[C@H]1[C@H]1O[C@H]12` (some centres undefined): the EC50 was > 200 µM and the IC50 is > 200 µM. For the compound `COC(=O)C(=O)C1(CCC(C)=O)c2ccccc2-c2ccccc21`, the outcome was inactive. For the compound `O=C1CCC2(CC1)Cc1ccccc1C2O` (centres undefined), the EC50 was > 200 µM and the IC50 was > 200 µM. For the compound `O=C1Oc2c(ccc3ccccc23)C2OCNCC12` (centres undefined), the EC50 was > 200 µM and the IC50 was determined as 129 µM. For the compound `COC(=O)N1CCCCC(CCC#CC[Si](C)(C)C)C1=O` (centres undefined), the EC50 is > 120 µM and the IC50 was 110 µM. Take `C=CCC(SC)C1=C(C)C(=O)c2ccccc21` (centres undefined): the EC50 was > 200 µM and the IC50 was determined as 110 µM.

Regarding `O=c1n(-c2ccccc2)c2nc3ccccc3nc2n1-c1ccc(Cl)c(Cl)c1`, the EC50 was > 61.7 µM and the IC50 came out at 30.2 µM. For the compound `Cc1cn(C2CC3OP(=O)(OCc4ccccc4)OCC3O2)c(=O)[nH]c1=O` (centres undefined), the EC50 is > 3.63 µM and the IC50 is > 3.63 µM. With `CC1(CO)CCCC/C1=N\Nc1cc([N+](=O)[O-])cc([N+](=O)[O-])c1` (centres undefined), the EC50 was > 501 µM and the IC50 turned out to be 19.1 µM. Take `c1ccc2c(c1)nnn2CN1CCOCC1`: the outcome was inactive.

Turning to `CC1=C(OCCCl)C2CC1C1C(=O)N(c3ccccc3)C(=O)C21` (centres undefined), the EC50 was > 389 µM and the IC50 was > 389 µM. With `S=C(N/N=C(/c1ccccc1)c1ccccn1)N1CCCCCC1`, the EC50 is > 0.2 µM and the IC50 is 0.115 µM. The corresponding values for `Cc1cn(C2CC(NC(=O)NO)C(CO)O2)c(=O)[nH]c1=O` (centres undefined) are > 200 µM and > 200 µM. For `O=C1CCCC/C1=C1/SC(=Nc2ccccc2)C(=Nc2ccccc2)N1c1ccccc1`, in that order: > 200 µM and > 200 µM.

In the case of `COc1cc2c(cc1OC)C(=O)c1nccc3ccc(OC)c(c13)O2`, the EC50 was > 53.7 µM and the IC50 was found to be 43.7 µM. Consider `CCCc1cc(=O)oc2c3c(c4c(c12)OC(C)(C)[C@@H](O)[C@@H]4O)O[C@@H](C)[C@H](C)[C@@H]3O`, for which the EC50 is > 200 µM and the IC50 was found to be 89.1 µM.
